Laboratory results reported in PMC5654082 (Malaria Journal, 2017).
pIC50: −log10 of the molar value. Counter-ions that a name gives are not always drawn.

What was measured:
[1] = design: method as in earlier work; details: unchanged PG; cited from earlier work
human OCT2 = biological target: T1, human OCT2 (Homo sapiens, UniProt O15244); experiment: Inhibition of OCT2-mediated ASP uptake in transduced HEK293 cells; assay type: cell-based; details: 10 µM ASP, 10 min, 37 °C
T1 construct: host or cells: HEK293, baculovirus transduction (CMV promoter), transient
T1 sequence (O15244 1-555): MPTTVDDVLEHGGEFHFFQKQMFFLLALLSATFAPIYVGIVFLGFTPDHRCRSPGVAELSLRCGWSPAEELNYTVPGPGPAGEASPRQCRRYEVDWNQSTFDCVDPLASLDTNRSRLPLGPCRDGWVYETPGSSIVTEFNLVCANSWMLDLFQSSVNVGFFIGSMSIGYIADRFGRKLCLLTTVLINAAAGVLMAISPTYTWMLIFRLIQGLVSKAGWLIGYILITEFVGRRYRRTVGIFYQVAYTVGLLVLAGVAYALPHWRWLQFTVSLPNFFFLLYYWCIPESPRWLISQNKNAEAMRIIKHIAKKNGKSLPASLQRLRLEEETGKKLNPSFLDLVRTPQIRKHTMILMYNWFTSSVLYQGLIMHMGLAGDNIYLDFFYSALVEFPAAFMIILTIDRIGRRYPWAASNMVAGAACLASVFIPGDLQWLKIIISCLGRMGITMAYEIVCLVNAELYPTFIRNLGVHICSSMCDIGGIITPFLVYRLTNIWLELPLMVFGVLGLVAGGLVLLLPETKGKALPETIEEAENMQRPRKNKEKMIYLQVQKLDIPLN
Method: HEK293 cells were modified to transiently express (a combination of) human OCT1, OCT2, MATE1, MATE2-K, or eYFP. Briefly, cDNA of the respective genes was cloned downstream of a CMV promoter into a baculovirus, of which passage three was used to transduce HEK293 cells. These cells were seeded in poly-D-lysine coated 24- or 96-wells plates and grown in a 37 °C incubator at 5% CO2. […] After 24 h, cells were transduced with 30 µL virus (10 µL virus + 20 µL complete medium in case of 96-wells plates) or 2 × 15 µL virus for cells that required simultaneous expression of two transporters. Finally, 195 µL sodium butyrate (45 µL for 96-wells plates) was added to a final concentration of 2 mM to enhance protein expression.
AMO (10 mM), ASP (1 mM), CQ (10 mM), PQ (10 mM) and PG (10 mM) were dissolved in MilliQ water. ART (10 mM), ATO (10 mM), DHA (10 mM), LUM (10 mM), MQ (10 mM), NMQ (20 mM), PYR (10 mM), QN (10 mM) were dissolved in DMSO. All compound stocks were stored at − 20 °C. Inhibition of OCT1- or OCT2-mediated ASP uptake by anti-malarials was performed in poly-D-lysine coated 96-wells plates 2 or 3 days following HEK293 cell transduction. In short, cells were washed with 125 µL 37 °C HBSS containing 10 mM HEPES, pH 7.4. […] ASP transport was stopped by washing with 125 µL ice-cold HBSS-HEPES buffer supplemented with 0.5% BSA.
For each compound, a range of seven concentrations was used to determine the concentration at which ASP uptake was inhibited half maximally (IC50). At least three independent experiments (4 for QN) were performed for each drug in triplicate as described above. […] To generate the final dose–response inhibition curve per anti-malarial, percentage of uptake was averaged for each drug concentration per experiment and the resulting mean ± SEM corresponding to three or four independent experiments were plotted.

[H]/N=C(\N/C(=N/[H])Nc1ccc(Cl)cc1)NC(C)C [Proguanil, proguanil hydrochloride]
Excretion into the urine [1]: < 40%
pIC50 (human OCT2; seven concentrations): 4.89
Relative ASP uptake (OCT2-mediated) (human OCT2; 50 µM anti-malarial, relative to solvent control fixed at 100%): 19 ± 7%
